Measured values taken from patent US20250179059A1 (The Regents of the University of California, priority 2021, published 2025).

What was measured:
[1] = target: T1, human BRD4 bromodomain II (Homo sapiens, UniProt O60885); assay: Bromodomain binding assay (AlphaScreen), BRD4 BDII; settings: AlphaScreen assay, Table C2; read-out: BRD4 BDII IC50
T1 construct: human BRD4 bromodomain II [based on Genbank NM_058243, residues 349-460]; host or cells: E. coli
Summary of the method: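 First, His6-tagged BRD4 bromodomain (BDI residues 44-170 or BDII residues 349-460) is incubated with compound for 30 min at room temperature. Next the biotinylated H4 peptide is added for 30 min, then donor and acceptor beads, with 60 min in the dark before AlphaScreen reading and IC50 fitting.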

[2] = system: human SKM-1 acute myeloid leukemia cells; assay: SKM-1 antiproliferation cell-based assay (ATPlite); settings: Homo sapiens, SKM-1, 96 h, SKM-1 antiproliferation assay, 4 days, Table C2
Summary of the method: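 Log-phase cells in RPMI 1640/15% FBS were seeded at 34722 cells/mL and exposed for 4 days to nine-concentration DMSO serial dilutions in triplicate. Viability was read as ATP luminescence (ATPlite 1step), and IC50 values came from variable-slope non-linear regression.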

SMILES | IC50 [1] [nM] | GI50 [2] [nM]
CC1CN(c2cc(-c3cccc(-c4ccc(N5CCCC5=O)c(F)c4)c3O)ccn2)CC(C)N1 (stereo not drawn) [Example 266, 1-(3′-(2-(3,5-dimethylpiperazin-1-yl)pyridin-4-yl)-3-fluoro-2′-hydroxy-[1,1′-biphenyl]-4-yl)pyrrolidin-2-one] | 1 to 10 | 300 to 3000
CC1CN(c2cc(-c3cccc(-c4ccc(N5CCCC5=O)c(Cl)c4)c3O)ccn2)CC(C)N1 (stereo not drawn) [Example 267, 1-(3-chloro-3′-(2-(3,5-dimethylpiperazin-1-yl)pyridin-4-yl)-2′-hydroxy-[1,1′-biphenyl]-4-yl)pyrrolidin-2-one] | 1 to 10 | 30 to 300
CC(=O)Nc1ccc(-c2cccc(-c3ccnc(N4CC5(CNC5)C4)c3)c2O)cc1F [Example 270, N-(3′-(2-(2,6-diazaspiro[3.3]heptan-2-yl)pyridin-4-yl)-3-fluoro-2′-hydroxy-[1,1′-biphenyl]-4-yl)acetamide] | 1 to 10 | 300 to 3000
O=C1CCCN1c1ccc(-c2cccc(-c3ccnc(N4CC5(CNC5)C4)c3)c2O)cc1Cl [Example 271, 1-(3′-(2-(2,6-diazaspiro[3.3]heptan-2-yl)pyridin-4-yl)-3-chloro-2′-hydroxy-[1,1′-biphenyl]-4-yl)pyrrolidin-2-one] | 10 to 100 | 300 to 3000
O=C1NCCCN1c1ccc(-c2cccc(-c3ccnc(N4CCNCC4)c3)c2O)cc1Cl [Example 276, 1-(3-chloro-2′-hydroxy-3′-(2-(piperazin-l-yl)pyridin-4-yl)-[1,1′-biphenyl]-4-yl)tetrahydropyrimidin-2(1H)-one] | 10 to 100 | 300 to 3000
O=C1NCCCN1c1ccc(-c2cccc(-c3ccnc(N4CCNCC4)c3)c2O)cc1F [Example 277, 1-(3-fluoro-2′-hydroxy-3′-(2-(piperazin-1-yl)pyridin-4-yl)-[1,1′-biphenyl]-4-yl)tetrahydropyrimidin-2(1H)-one] | > 100 | 300 to 3000
O=C1CCCCN1c1ccc(-c2cc(F)cc(-c3ccnc(N4CCNCC4)c3)c2O)cc1Cl [Example 281, 1-(3-chloro-5′-fluoro-2′-hydroxy-3′-(2-(piperazin-1-yl)pyridin-4-yl)-[1,1′-biphenyl]-4-yl)piperidin-2-one] | 10 to 100 | 300 to 3000
O=C1CCCCN1c1ccc(-c2cccc(-c3ccnc(N4CCNCC4)c3)c2O)cc1Cl [Example 282, 1-(3-chloro-2′-hydroxy-3′-(2-(piperazin-1-yl)pyridin-4-yl)-[1,1′-biphenyl]-4-yl)piperidin-2-one] | 10 to 100 | 300 to 3000
O=C1CCCN1c1ccc(-c2cccc(-c3ccnc(N4CC5(CNC5)C4)c3)c2O)cc1F [Example 284, 1-(3′-(2-(2,6-diazaspiro[3.3]heptan-2-yl)pyridin-4-yl)-3-fluoro-2′-hydroxy-[1,1′-biphenyl]-4-yl)pyrrolidin-2-one] | 10 to 100 | 300 to 3000
CC(=O)Nc1ccc(-c2cccc(-c3cc(N4CCNCC4)nc4[nH]ccc34)c2O)cc1F [Example 286, N-(3-fluoro-2′-hydroxy-3′-(6-(piperazin-1-yl)-1H-pyrrolo[2,3-b]pyridin-4-yl)-[1,1′-biphenyl]-4-yl)acetamide] | 10 to 100 | 300 to 3000
O=C1NCCCN1c1ccc(-c2cc(F)cc(-c3ccnc(N4CCNCC4)c3)c2O)cc1Cl [Example 287, 1-(3-chloro-5′-fluoro-2′-hydroxy-3′-(2-(piperazin-1-yl)pyridin-4-yl)-[1,1′-biphenyl]-4-yl)tetrahydropyrimidin-2(1H)-one] | > 100 | 300 to 3000
CN1CCCN(c2ccc(-c3cccc(-c4ccnc(N5CCNCC5)c4)c3O)cc2F)C1=O [Example 288, 1-(3-fluoro-2′-hydroxy-3′-(2-(piperazin-1-yl)pyridin-4-yl)-[1,1′-biphenyl]-4-yl)-3-methyltetrahydropyrimidin-2(1H)-one] | > 100 | ≥ 3000
CN1CCN(c2ccc(-c3cccc(-c4cncc(N5CCNCC5)c4)c3O)cc2F)C1=O [Example 292, 1-(3-fluoro-2′-hydroxy-3′-(5-(piperazin-1-yl)pyridin-3-yl)-[1,1′-biphenyl]-4-yl)-3-methylimidazolidin-2-one] | 1 to 10 | 30 to 300

Other lines, results leading:

IC50 [1] [nM] | GI50 [2] [nM] | SMILES
10 to 100 | 300 to 3000 | O=C1CCCCN1c1ccc(-c2cccc(-c3ccnc(N4CCNCC4)c3)c2O)cc1F [Example 263, 1-(3-fluoro-2′-hydroxy-3′-(2-(piperazin-1-yl)pyridin-4-yl)-[1,1′-biphenyl]-4-yl)piperidin-2-one]
1 to 10 | 30 to 300 | C[C@@H]1CN(c2cncc(-c3cccc(-c4ccc(N5CCCC5=O)c(F)c4)c3O)c2)CCN1 [Example 264, (R)-1-(3-fluoro-2′-hydroxy-3′-(5-(3-methylpiperazin-1-yl)pyridin-3-yl)-[1,1′-biphenyl]-4-yl)pyrrolidin-2-one]
1 to 10 | 30 to 300 | C[C@@H]1CN(c2cncc(-c3cccc(-c4ccc(N5CCCC5=O)c(Cl)c4)c3O)c2)CCN1 [Example 265, (R)-1-(3-chloro-2′-hydroxy-3′-(5-(3-methylpiperazin-1-yl)pyridin-3-yl)-[1,1'-biphenyl]-4-yl)pyrrolidin-2-one]
1 to 10 | 30 to 300 | CC(=O)Nc1ccc(-c2cc(Cl)cc(-c3ccnc(N4CCNCC4)c3)c2O)cc1F [Example 268, N-(5′-chloro-3-fluoro-2′-hydroxy-3′-(2-(piperazin-1-yl)pyridin-4-yl)-[1,1′-biphenyl]-4-yl)acetamide]
1 to 10 | 300 to 3000 | O=C1CCCN1c1ccc(-c2cc(Cl)cc(-c3ccnc(N4CCNCC4)c3)c2O)cc1F [Example 269, 1-(5′-chloro-3-fluoro-2′-hydroxy-3′-(2-(piperazin-1-yl)pyridin-4-yl)-[1,1′-biphenyl]-4-yl)pyrrolidin-2-one]
10 to 100 | 300 to 3000 | CC(=O)Nc1ccc(-c2cccc(-c3ccnc(N4CCC(O)CC4)c3)c2O)cc1F [Example 272, N-(3-fluoro-2′-hydroxy-3′-(2-(4-hydroxypiperidin-1-yl)pyridin-4-yl)-[1,1′-biphenyl]-4-yl)acetamide]
10 to 100 | 300 to 3000 | CC(=O)Nc1ccc(-c2cccc(-c3cc(C(N)=O)nc(N4CCNCC4)c3)c2O)cc1F [Example 273, 4-(4′-acetamido-3′-fluoro-2-hydroxy-[1,1′-biphenyl]-3-yl)-6-(piperazin-1-yl)picolinamide]
1 to 10 | 30 to 300 | O=C1CCCN1c1ccc(-c2cc(Cl)cc(-c3ccnc(N4CCNCC4)c3)c2O)cc1Cl [Example 274, 1-(3,5′-dichloro-2′-hydroxy-3′-(2-(piperazin-1-yl)pyridin-4-yl)-[1,1′-biphenyl]-4-yl)pyrrolidin-2-one]
1 to 10 | 30 to 300 | CC(=O)Nc1ccc(-c2cc(C)cc(-c3ccnc(N4CCNCC4)c3)c2O)cc1F [Example 275, N-(3-fluoro-2′-hydroxy-5′-methyl-3′-(2-(piperazin-1-yl)pyridin-4-yl)-[1,1′-biphenyl]-4-yl)acetamide]
10 to 100 | 300 to 3000 | O=C1NCCCN1c1ccc(-c2cc(F)cc(-c3ccnc(N4CCNCC4)c3)c2O)cc1F [Example 278, 1-(3,5′-difluoro-2′-hydroxy-3′-(2-(piperazin-1-yl)pyridin-4-yl)-[1,1′-biphenyl]-4-yl)tetrahydropyrimidin-2(1H)-one]
1 to 10 | 300 to 3000 | CC(=O)Nc1ccc(-c2cccc(-c3ccnc(N4CC(C)NC(C)C4)c3)c2O)cc1F (stereo not drawn) [Example 279, N-(3′-(2-(3,5-dimethylpiperazin-1-yl)pyridin-4-yl)-3-fluoro-2′-hydroxy-[1,1′-biphenyl]-4-yl)acetamide]
10 to 100 | 300 to 3000 | O=C1CCCCN1c1ccc(-c2cc(F)cc(-c3ccnc(N4CCNCC4)c3)c2O)cc1F [Example 280, 1-(3,5′-difluoro-2′-hydroxy-3′-(2-(piperazin-1-yl)pyridin-4-yl)-[1,1′-biphenyl]-4-yl)piperidin-2-one]
10 to 100 | 300 to 3000 | CC(=O)Nc1ccc(-c2cccc(-c3ccnc(N4CC5(CNC5)C4)c3)c2O)cc1Cl [Example 283, N-(3′-(2-(2,6-diazaspiro[3.3]heptan-2-yl)pyridin-4-yl)-3-chloro-2′-hydroxy-[1,1′-biphenyl]-4-yl)acetamide]
10 to 100 | 300 to 3000 | O=C1CCCN1c1ccc(-c2cc(F)cc(-c3ccnc(N4CC5(CNC5)C4)c3)c2O)cc1F [Example 285, 1-(3′-(2-(2,6-diazaspiro[3.3]heptan-2-yl)pyridin-4-yl)-3,5′-difluoro-2′-hydroxy-[1,1′-biphenyl]-4-yl)pyrrolidin-2-one]
1 to 10 | 30 to 300 | C[C@@H]1CN(c2cc(-c3cccc(-c4ccc(N5CCN(C)C5=O)c(F)c4)c3O)ccn2)CCN1 [Example 289, (R)-1-(3-fluoro-2′-hydroxy-3′-(2-(3-methylpiperazin-1-yl)pyridin-4-yl)-[1,1′-biphenyl]-4-yl)-3-methylimidazolidin-2-one]
> 100 | ≥ 3000 | COC(=O)c1cc(-c2ccnc(N3CCNCC3)c2)c(O)c(-c2ccc(NC(C)=O)c(F)c2)c1 [Example 290, Methyl 4′-acetamido-3′-fluoro-6-hydroxy-5-(2-(piperazin-1-yl)pyridin-4-yl)-[1,1′-biphenyl]-3-carboxylate]
10 to 100 | 300 to 3000 | CC(=O)Nc1ccc(-c2cccc(-c3cc(F)nc(N4CCNCC4)c3)c2O)cc1F [Example 291, N-(3-fluoro-3′-(2-fluoro-6-(piperazin-1-yl)pyridin-4-yl)-2′-hydroxy-[1,1′-biphenyl]-4-yl)acetamide]
